From patent US20260022143A1, “Cyclic Peptide Inhibitors of IL-23” (JANSSEN PHARMACEUTICA NV, priority 2022, published 2026)
Positions of bridges follow the written chain, without caps; N, C: chain ends. Non-standard residues stand in square brackets, D forms with d. Residues, ends and D or L forms follow the SMILES beside them. *: point of attachment. Me3N+(CH2)2O(CH2)2O(CH2)2CO = C[N+](C)(C)CCOCCOCCC(=O)*; Trp(7-Me) = Cc1cccc2c(C[C@H](N)C(=O)O)c[nH]c12; 2Nal = N[C@@H](Cc1ccc2ccccc2c1)C(=O)O; 3Pal = N[C@@H](Cc1cccnc1)C(=O)O; Lys(Me) = CNCCCC[C@H](N)C(=O)O; Pen = CC(C)(S)[C@H](N)C(=O)O; Thp = NC1(C(=O)O)CCOCC1; X3 = C[N+](C)(C)CCCCC*; Sar = CNCC(=O)O

What was measured:
IL-23R = target: T1, IL-23R (Homo sapiens, UniProt Q5VWK5); experiment: IL23R Reporter Assay; format: cell-based; settings: HEK293 cells containing IL-23R, IL-12RP1 and STAT-inducible firefly luciferase reporter; 10 ng/mL IL-23 (EC90); 5 h at 37° C.; read-out: IL23R Reporter Assay
T1 construct: host or cells: HEK293
T1 sequence (Q5VWK5 24-629): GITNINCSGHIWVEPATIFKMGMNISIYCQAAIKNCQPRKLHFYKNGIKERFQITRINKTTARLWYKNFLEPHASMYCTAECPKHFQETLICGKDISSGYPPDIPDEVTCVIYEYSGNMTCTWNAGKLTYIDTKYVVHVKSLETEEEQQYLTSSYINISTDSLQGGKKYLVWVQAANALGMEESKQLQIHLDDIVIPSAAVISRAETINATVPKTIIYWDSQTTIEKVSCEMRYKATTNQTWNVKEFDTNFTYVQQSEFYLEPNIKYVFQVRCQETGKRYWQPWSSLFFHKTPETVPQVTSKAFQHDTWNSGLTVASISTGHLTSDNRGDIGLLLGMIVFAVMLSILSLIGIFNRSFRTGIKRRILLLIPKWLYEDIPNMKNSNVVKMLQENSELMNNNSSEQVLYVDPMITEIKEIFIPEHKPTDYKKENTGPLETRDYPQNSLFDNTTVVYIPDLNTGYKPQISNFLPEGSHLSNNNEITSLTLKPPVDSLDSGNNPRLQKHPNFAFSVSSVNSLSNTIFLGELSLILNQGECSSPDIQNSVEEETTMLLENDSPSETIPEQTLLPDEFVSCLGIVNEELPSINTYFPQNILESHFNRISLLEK

[1] = Exposed Polar Surface Area (EPSA); format: physicochemical; settings: SFC on Chirex 3014 column; sample 1 mM DMSO stock; read-out: EPSA
Summary of the method: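 SFC retention on a Chirex 3014 (S-valine/(R)-1-(α-naphthyl)ethylamine) column at 35 °C, 4 mL/min, 14 MPa outlet, 5–60% methanol/20 mM ammonium formate gradient in CO2. Retention times converted to EPSA (Å²) via linear calibration with 8 standards; samples from 1 mM DMSO stock, run in duplicate.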

Row | Structure (SMILES) | IC50 (IL-23R) [nM] | EPSA [1] [A^2]
1 | CC(=O)N(C)CCCC[C@@H]1NC(=O)[C@H](Cc2c[nH]c3c(C)cccc23)NC(=O)[C@H]([C@@H](C)O)NC(=O)[C@H](CC(=O)N(C)C)NC(=O)[C@@H](NC(=O)CCOCCOCC[N+](C)(C)C)C(C)(C)SSC(C)(C)[C@@H](C(=O)N[C@@H](Cc2ccc(OCCCCC[N+](C)(C)C)cc2)C(=O)N[C@@H](CC(C)C)C(=O)NC2(C(=O)N[C@@H](CCCCN(C)C(C)=O)C(=O)N[C@@H](CC(N)=O)C(=O)N[C@@H](Cc3cccnc3)C(=O)N(C)CC(=O)N(C)C)CCOCC2)NC1=O [compound 499, cPEG3aCO-Pen(3)-N(N(Me)2)-T-7MeW-K(NMeAc)-Pen(3)-TMApF-L-THP-K(NMeAc)-N-3Pya-Sar-CON(Me)2] ({Me3N+(CH2)2O(CH2)2O(CH2)2CO}-[Pen]D(NMe2)T[Trp(7-Me)][Lys(Me)](Ac)[Pen]Y(X3)L[Thp][Lys(Me)](Ac)N[3Pal][Sar]-NMe2; disulfide 1-6) | > 1630 | 133
2 | CC(=O)N(C)CCCC[C@@H]1NC(=O)[C@H](Cc2c[nH]c3c(C)cccc23)NC(=O)[C@H]([C@@H](C)O)NC(=O)[C@H](CC(=O)N(C)C)NC(=O)[C@@H](NC(=O)CCOCCOCC[N+](C)(C)C)C(C)(C)SSC(C)(C)[C@@H](C(=O)N[C@@H](Cc2ccc(OCCCCC[N+](C)(C)C)cc2)C(=O)N[C@@H](C)C(=O)NC2(C(=O)N[C@@H](CCCCN(C)C(C)=O)C(=O)N[C@@H](CC(N)=O)C(=O)N[C@@H](Cc3cccnc3)C(=O)N(C)CC(=O)N(C)C)CCOCC2)NC1=O [compound 500, cPEG3aCO-Pen(3)-N(N(Me)2)-T-7MeW-K(NMeAc)-Pen(3)-TMApF-A-THP-K(NMeAc)-N-3Pya-Sar-CON(Me)2] ({Me3N+(CH2)2O(CH2)2O(CH2)2CO}-[Pen]D(NMe2)T[Trp(7-Me)][Lys(Me)](Ac)[Pen]Y(X3)A[Thp][Lys(Me)](Ac)N[3Pal][Sar]-NMe2; disulfide 1-6) | > 1190 | 159
3 | CC(=O)NCCCC[C@@H]1NC(=O)[C@H](Cc2c[nH]c3c(-c4cccc(NC(C)=O)c4)cccc23)NC(=O)[C@H]([C@@H](C)O)NC(=O)[C@H](CC(N)=O)NC(=O)[C@@H](NC(=O)CCOCCOCC[N+](C)(C)C)C(C)(C)SSC(C)(C)[C@@H](C(=O)N[C@@H](Cc2ccc(OCCCCC[N+](C)(C)C)cc2)C(=O)N[C@@H](Cc2ccc3ccccc3c2)C(=O)NC2(C(=O)N[C@@H](CCCCN(C)C(C)=O)C(=O)N[C@@H](CC(N)=O)C(=O)N[C@@H](Cc3cncc(C)c3)C(=O)N(C)CC(N)=O)CCOCC2)NC1=O [compound 501, cPEG3aCO-Pen(3)-N-T-7(3NAcPh)W-K(Ac)-Pen(3)-TMAPF-2Nal-THP-K(NMeAc)-N-5MePyridinAla-Sar-CONH2] | 4.6 | 175
4 | CC(=O)NCCCC[C@@H]1NC(=O)[C@H](Cc2c[nH]c3c(-c4cccc(NC(C)=O)c4)cccc23)NC(=O)[C@H]([C@@H](C)O)NC(=O)[C@H](CC(N)=O)NC(=O)[C@@H](NC(C)=O)C(C)(C)SSC(C)(C)[C@@H](C(=O)N[C@@H](Cc2ccc(OCCCCC[N+](C)(C)C)cc2)C(=O)N[C@@H](Cc2ccc3ccccc3c2)C(=O)NC2(C(=O)N[C@@H](CCCCN(C)C(C)=O)C(=O)N[C@@H](CC(N)=O)C(=O)N[C@@H](Cc3cncc(C)c3)C(=O)N(C)CC(N)=O)CCOCC2)NC1=O [compound 502, MeCO-Pen(3)-N-T-7(3NAcPh)W-K(Ac)-Pen(3)-TMAPF-2Nal-THP-K(NMeAc)-N-5MePyridinAla-Sar-CONH2] | 3.8 | 169
5 | CC(=O)NCCCC[C@@H]1NC(=O)[C@H](Cc2c[nH]c3c(-c4cccc(NC(C)=O)c4)cccc23)NC(=O)[C@H]([C@@H](C)O)NC(=O)[C@H](CC(N)=O)NC(=O)[C@@H](NC(C)=O)C(C)(C)SSC(C)(C)[C@@H](C(=O)N[C@@H](Cc2ccc(OCCCCC[N+](C)(C)C)cc2)C(=O)N[C@@H](Cc2ccc3ccccc3c2)C(=O)NC2(C(=O)N[C@@H](CCCCNC(C)=O)C(=O)N[C@@H](CC(N)=O)C(=O)N[C@@H](Cc3cncc(C)c3)C(=O)N(C)CC(N)=O)CCOCC2)NC1=O [compound 503, MeCO-Pen(3)-N-T-7(3NAcPh)W-K(Ac)-Pen(3)-TMAPF-2Nal-THP-K(Ac)-N-5MePyridinAla-Sar-CONH2] | 8.4 | 169
6 | CC(=O)NCCCC[C@@H]1NC(=O)[C@H](Cc2c[nH]c3c(-c4cccc(NC(C)=O)c4)cccc23)NC(=O)[C@H]([C@@H](C)O)NC(=O)[C@H](CC(N)=O)NC(=O)[C@@H](NC(C)=O)C(C)(C)SSC(C)(C)[C@@H](C(=O)N[C@@H](Cc2ccc(OCCCCC[N+](C)(C)C)cc2)C(=O)N[C@@H](Cc2ccc3ccccc3c2)C(=O)NC2(C(=O)N[C@@H](CCC(=O)O)C(=O)N[C@@H](CC(N)=O)C(=O)N[C@@H](Cc3cncc(C)c3)C(=O)N(C)CC(N)=O)CCOCC2)NC1=O [compound 504, MeCO-Pen(3)-N-T-7(3NAcPh)W-K(Ac)-Pen(3)-TMAPF-2Nal-THP-E-N-5MePyridinAla-Sar-CONH2] | 8.6 | 178
7 | CC(=O)NCCCC[C@@H]1NC(=O)[C@H](Cc2c[nH]c3c(C)cccc23)NC(=O)[C@H]([C@@H](C)O)NC(=O)[C@H](CC(N)=O)NC(=O)[C@@H](NC(=O)CCOCCOCC[N+](C)(C)C)C(C)(C)SSC(C)(C)[C@@H](C(=O)N[C@@H](Cc2ccc(OCCN)cc2)C(=O)N[C@@H](Cc2ccc3ccccc3c2)C(=O)NC2(C(=O)N[C@@H](CCC(=O)O)C(=O)N[C@@H](CC(N)=O)C(=O)N[C@@H](Cc3cncc(C)c3)C(=O)N(C)CC(N)=O)CCOCC2)NC1=O [compound 506, cPEG3aCO-Pen(3)-N-T-7MeW-K(Ac)-Pen(3)-AEF-2Nal-THP-E-N-5MePyridinAla-Sar-CONH2] | 4.1 | 191
8 | CC(=O)N(C)CCCC[C@@H]1NC(=O)[C@H](Cc2c[nH]c3ccccc23)NC(=O)[C@H]([C@@H](C)O)NC(=O)[C@H](CC(=O)N(C)C)NC(=O)[C@@H](NC(=O)CCOCCOCC[N+](C)(C)C)C(C)(C)SSC(C)(C)[C@@H](C(=O)N[C@@H](Cc2ccc(OCCCCC[N+](C)(C)C)cc2)C(=O)N[C@@H](Cc2ccc3ccccc3c2)C(=O)NC2(C(=O)N[C@@H](CCCCN(C)C(C)=O)C(=O)N[C@@H](CC(N)=O)C(=O)N[C@@H](Cc3cccnc3)C(=O)N(C)CC(=O)N(C)C)CCOCC2)NC1=O [compound 507, cPEG3aCO-Pen(3)-N(N(Me)2)-T-W-K(NMeAc)-Pen(3)-TMAPF-2Nal-THP-K(NMeAc)-N-3Pya-Sar-CONMe2] ({Me3N+(CH2)2O(CH2)2O(CH2)2CO}-[Pen]D(NMe2)TW[Lys(Me)](Ac)[Pen]Y(X3)[2Nal][Thp][Lys(Me)](Ac)N[3Pal][Sar]-NMe2; disulfide 1-6) | 3 | 164
9 | CC(=O)N(C)CCCC[C@@H]1NC(=O)[C@H](Cc2ccc3ccccc3c2)NC(=O)[C@H]([C@@H](C)O)NC(=O)[C@H](CC(=O)N(C)C)NC(=O)[C@@H](NC(=O)CCOCCOCC[N+](C)(C)C)C(C)(C)SSC(C)(C)[C@@H](C(=O)N[C@@H](Cc2ccc(OCCCCC[N+](C)(C)C)cc2)C(=O)N[C@@H](Cc2ccc3ccccc3c2)C(=O)NC2(C(=O)N[C@@H](CCCCN(C)C(C)=O)C(=O)N[C@@H](CC(N)=O)C(=O)N[C@@H](Cc3cccnc3)C(=O)N(C)CC(=O)N(C)C)CCOCC2)NC1=O [compound 509, cPEG3aCO-Pen(3)-N(N(Me)2)-T-2Nal-K(NMeAc)-Pen(3)-TMAPF-2Nal-THP-K(NMeAc)-N-3Pya-Sar-CONMe2] ({Me3N+(CH2)2O(CH2)2O(CH2)2CO}-[Pen]D(NMe2)T[2Nal][Lys(Me)](Ac)[Pen]Y(X3)[2Nal][Thp][Lys(Me)](Ac)N[3Pal][Sar]-NMe2; disulfide 1-6) | 32 | 161
10 | CC(=O)N(C)CCCC[C@@H]1NC(=O)[C@H](Cc2ccccc2)NC(=O)[C@H]([C@@H](C)O)NC(=O)[C@H](CC(=O)N(C)C)NC(=O)[C@@H](NC(=O)CCOCCOCC[N+](C)(C)C)C(C)(C)SSC(C)(C)[C@@H](C(=O)N[C@@H](Cc2ccc(OCCCCC[N+](C)(C)C)cc2)C(=O)N[C@@H](Cc2ccc3ccccc3c2)C(=O)NC2(C(=O)N[C@@H](CCCCN(C)C(C)=O)C(=O)N[C@@H](CC(N)=O)C(=O)N[C@@H](Cc3cccnc3)C(=O)N(C)CC(=O)N(C)C)CCOCC2)NC1=O [compound 510, cPEG3aCO-Pen(3)-N(N(Me)2)-T-F-K(NMeAc)-Pen(3)-TMAPF-2Nal-THP-K(NMeAc)-N-3Pya-Sar-CONMe2] ({Me3N+(CH2)2O(CH2)2O(CH2)2CO}-[Pen]D(NMe2)TF[Lys(Me)](Ac)[Pen]Y(X3)[2Nal][Thp][Lys(Me)](Ac)N[3Pal][Sar]-NMe2; disulfide 1-6) | > 1220 | 201
